{"source": "patent US20240139290A1", "about": "“METHODS OF TREATING A CARDIOVASCULAR ISCHEMIC EVENT” (Radius Health, Inc., priority 2021, published 2024)", "key": {"HL-1 cardiomyocytes [1]": {"test_system": "HL-1 cardiomyocytes", "conditions": "doxorubicin 2.5 μM for 24 hours; previously shown; cited from earlier work"}, "[2]": {"conditions": "clinical studies; cited from earlier work"}, "ERK": {"test_system": "ERK", "assay": "Immunoblot of phospho-ERK in HL-1 cardiomyocytes (normoxia or simulated ischemia + 10 min reoxygenation)", "format": "cell-based, murine", "conditions": "for phospho-ERK expression with co-administration of PD98059: 5 μM PD98059, control, abaloparatide- and PTHrP-treated groups", "procedure": "(§1) At 24 h after the onset of treatment, cells underwent 2 h of SI+10 min reoxygenation, while additional time- and treatment-matched normoxic cultures served as controls (n=3 independent replicates per group). At 10 min post-reoxygenation, cells were harvested and lysed in RIPA buffer containing 2 protease and phosphatase inhibitors. The lysates were centrifuged at 14,000×g for 15 min, and the resultant supernatant was collected and probed for the expression of ERK (total and phosphorylated: antibodies from Cell Signaling Technology Inc., Danvers, MA, USA), PI3 kinase/Akt (total and phosphorylated: Cell Signaling Technology Inc., Danvers, MA, USA) and GAPDH (Sigma Aldrich Inc., St. Louis, MO, USA) using standard methods Immunoreactive bands were identified by incubation with horseradish peroxidase (HRP)-conjugated secondary antibody, visualized using x-ray film, and quantified using the NIH ImageJ software. […] At 24 h after the onset of treatment, cells underwent either 2 h of SI+24 h reoxygenation or a time-matched period of normoxia (n=2 independent replicates per group). At 24 h following relief of SI, cell viability was quantified using the MTT assay as described in Example 1.\nHL-1 cardiomyocytes were treated as described in Example 5, but were harvested at 10 minutes post-reoxygenation, lysed, and probed for phospho- and total ERK expression as detailed in Example 5."}, "Akt": {"test_system": "Akt", "assay": "Immunoblot of phospho-Akt in HL-1 cardiomyocytes (normoxia or simulated ischemia + 10 min reoxygenation)", "format": "cell-based, murine", "conditions": "2 h simulated ischemia + 10 min reoxygenation; 10 nM; vs vehicle; Example 3, FIG. 3B", "procedure": "as §1"}, "HL-1 cardiomyocytes [3]": {"test_system": "HL-1 cardiomyocytes", "assay": "HL-1 cardiomyocyte viability (MTT assay) under normoxia or simulated ischemia-reperfusion", "format": "cell-based, murine", "procedure": "HL-1 cardiomyocytes were grown to ˜80% confluence in 95% room air/5% CO2 at 37° C. in Claycomb medium supplemented with fetal bovine serum (10%), L-glutamine (2 mM), norepinephrine (0.1 mM), penicillin (100 U/mL) and streptomycin (100 μg/mL). The cardiomyocytes were then incubated for 24 hours with abaloparatide (0.1 nM, 1.0 nM, 10 nM, 100 nM) or vehicle control. At 24 hours after the onset of incubation, the cells were subjected to 2 hours of simulated ischemia (achieved by depletion of oxygen and nutrients), followed by 24 hours of reoxygenation. During simulated ischemia, Claycomb medium containing drug/placebo was replaced with drug-free hypoxia buffer at pH 6.6 (composed of NaCl ([…]), KCl (8 mM), KH2PO4 (1.2 mM), 1.25 mM MgSO4 (1.25 mM), CaCl2 (1.2 mM), NaHCO3 (6.25 mM), HEPES (20 mM), glucose (5.5 mM), 2-deoxy-D-glucose (20 mM), sodium lactate (5 mM): all ingredients from Sigma Aldrich, St. Louis, MO, USA) and the culture plates were sealed in a hermetic chamber with GasPak EZ Gas Generating Sachets (BD Biosciences, San Jose, CA, USA). Reoxygenation was achieved by removing the plates from the sealed chamber and exchanging the hypoxia buffer with serum-free Claycomb medium. Additional time- and treatment-matched normoxic cultures served as controls (n=4 independent replicates per group). Cell viability was quantified using the 3-(4,5-dimethythiazol-2-yl)-2,5-diphenyl tetrazolium bromide (MTT) assay.\nAt 24 hours after the onset of incubation, the cells were subjected to 2 hours of simulated ischemia (achieved by depletion of oxygen and nutrients), followed by 24 hours of reoxygenation. Additional time- and treatment-matched normoxic cultures served as controls. Cell viability was quantified using the 3-(4,5-dimethythiazol-2-yl)-2,5-diphenyl tetrazolium bromide (MTT) assay.\nas §1\nTwenty-four hours after the onset of treatment, cells underwent 2 hours of simulated ischemia followed by 24 hours of reoxygenation. Additional time- and treatment-matched normoxic cultures served as controls. Cell viability was quantified using the MTT assay."}, "[4]": {"conditions": "human, in vivo, sc; cited from earlier work"}, "[5]": {"conditions": "Obaidi et al. 2010; cited from earlier work"}, "[6]": {"conditions": "simulated ischemia + 10 min reoxygenation, Example 6, FIG. 6B"}}, "note": "Entries after “also recorded” stand apart in the source; their conditions may differ."}
{"molecule": "COc1cccc2c1C(=O)c1c(O)c3c(c(O)c1C2=O)C[C@@](O)(C(=O)CO)C[C@@H]3O[C@H]1C[C@H](N)[C@H](O)[C@H](C)O1", "note": "[doxorubicin]", "values": [{"measurement": "HL-1 cardiomyocytes killed", "setting": "HL-1 cardiomyocytes [1]", "value": "~50", "unit": "%"}]}
{"molecule": "CC[C@H](C)[C@H](NC(=O)[C@H](CCC(=O)O)NC(=O)[C@H](CO)NC(=O)[C@@H](NC(=O)[C@@H](N)CO)C(C)C)C(=O)N[C@@H](CCC(N)=O)C(=O)N[C@@H](CC(C)C)C(=O)N[C@@H](CCSC)C(=O)N[C@@H](Cc1cnc[nH]1)C(=O)N[C@@H](CC(N)=O)C(=O)N[C@@H](CC(C)C)C(=O)NCC(=O)N[C@@H](CCCCN)C(=O)N[C@@H](Cc1cnc[nH]1)C(=O)N[C@@H](CC(C)C)C(=O)N[C@@H](CC(N)=O)C(=O)N[C@@H](CO)C(=O)N[C@@H](CCSC)C(=O)N[C@@H](CCC(=O)O)C(=O)N[C@@H](CCCN=C(N)N)C(=O)N[C@H](C(=O)N[C@@H](CCC(=O)O)C(=O)N[C@@H](Cc1c[nH]c2ccccc12)C(=O)N[C@@H](CC(C)C)C(=O)N[C@@H](CCCN=C(N)N)C(=O)N[C@@H](CCCCN)C(=O)N[C@@H](CCCCN)C(=O)N[C@@H](CC(C)C)C(=O)N[C@@H](CCC(N)=O)C(=O)N[C@@H](CC(=O)O)C(=O)N[C@H](C(=O)N[C@@H](Cc1cnc[nH]1)C(=O)N[C@@H](CC(N)=O)C(=O)N[C@@H](Cc1ccccc1)C(=O)O)C(C)C)C(C)C", "note": "[teriparatide]", "values": [{"measurement": "orthostatic hypotension", "setting": "[2]", "value": "transient episodes of symptomatic orthostatic hypotension"}, {"measurement": "palpitations", "setting": "[2]", "value": "palpitations"}, {"measurement": "tachycardia", "setting": "[2]", "value": "tachycardia"}]}
{"molecule": "COc1cccc(-c2cc(=O)c3ccccc3o2)c1N", "note": "[PD98059]", "values": [{"measurement": "phospho-ERK expression with co-administration of PD98059", "setting": "ERK; [6]", "value": "attenuated"}]}
{"molecule": "abaloparatide", "values": [{"measurement": "expression of phospho-Akt (normalized to GAPDH)", "setting": "Akt", "value": "better preservation of phospho-Akt"}, {"measurement": "expression of phospho-ERK (normalized to total ERK)", "setting": "ERK; 2 h simulated ischemia + 10 min reoxygenation, 10 nM, vs vehicle, Example 3, FIG. 3C", "value": "augmented expression of phospho-ERK"}, {"measurement": "expression of phospho-ERK vs vehicle-controls", "setting": "ERK; simulated ischemia + 10 min reoxygenation, 10 nM, Example 6, FIG. 6B", "value": "augmented expression phospho-ERK"}, {"measurement": "phospho-ERK expression with co-administration of PD98059", "setting": "ERK; [6]", "value": "attenuated"}, {"measurement": "HL-1 cell viability vs vehicle-controls", "setting": "HL-1 cardiomyocytes [3]; 2 h simulated ischemia + 24 h reoxygenation, 10 nM, Example 5, FIG. 5B", "value": "viability was better maintained"}, {"measurement": "HL-1 cell viability vs vehicle-controls", "setting": "HL-1 cardiomyocytes [3]; 2 h simulated ischemia + 24 h reoxygenation, 10 and 100 nM, Example 4, FIG. 4B", "value": "viability was better-maintained"}, {"measurement": "HL-1 cell viability vs vehicle control", "setting": "HL-1 cardiomyocytes [3]; 2 h simulated ischemia + 24 h reoxygenation, abaloparatide 0.1-100 nM, 24 h pre-incubation, Example 1, FIG. 1B", "value": "viability was better-maintained"}, {"measurement": "efficacy of abaloparatide relative to PTHrP(1-36)", "setting": "HL-1 cardiomyocytes [3]; in vitro model of ischemia-reperfusion injury, summary statement", "value": "slightly but significantly greater than that of PTHrP(1-36)"}, {"measurement": "viability of HL-1 cardiomyocyte cells", "setting": "HL-1 cardiomyocytes [3]; in vitro model of lethal ischemia-reperfusion injury, summary statement", "value": "enhancement in viability"}, {"measurement": "HL-1 cell viability", "setting": "HL-1 cardiomyocytes [3]; normoxic conditions, abaloparatide 0.1-100 nM, 24 h incubation, Example 1, FIG. 1A", "value": "no effect on HL-1 cell viability"}, {"measurement": "protective effect on viability with co-administration of PD98059", "setting": "HL-1 cardiomyocytes [3]; simulated ischemia-reperfusion, 10 nM peptide + 5 μM PD98059, Example 5, FIG. 5B", "value": "attenuated by co-administration of PD98059; also recorded: attenuated the protective effect"}, {"measurement": "viability with 10 nM abaloparatide compared with other groups", "setting": "HL-1 cardiomyocytes [3]; simulated ischemia-reperfusion, p<0.05 between groups, Example 4, FIG. 4B", "value": "greater than that achieved with 100 nM abaloparatide and 10 nM PTHrP(1-36)"}, {"measurement": "concentration with greatest efficacy on viability", "setting": "HL-1 cardiomyocytes [3]; simulated ischemia-reperfusion, tested 0.1, 1.0, 10, 100 nM, Example 1, FIG. 1B", "value": 10, "unit": "nM"}, {"measurement": "HL-1 cardiomyocyte death caused by simulated ischemia-reperfusion", "setting": "HL-1 cardiomyocytes [3]; summary statement on Examples 1-3", "value": "attenuated HL-1 cardiomyocyte death"}, {"measurement": "heart rate", "setting": "[4]", "value": "modest and transient increases in heart rate"}, {"measurement": "heart rate relative to placebo", "setting": "[4]", "value": "transient increases in heart rate"}, {"measurement": "incidence of palpitations relative to placebo", "setting": "[4]", "value": "higher incidences of palpitations"}, {"measurement": "supine blood pressure", "setting": "[4]", "value": "decreases in supine blood pressure"}, {"measurement": "anabolic activity", "setting": "[5]", "value": "potent anabolic activity"}, {"measurement": "bone resorption", "setting": "[5]", "value": "decreased bone resorption"}, {"measurement": "calcium-mobilizing potential", "setting": "[5]", "value": "less calcium-mobilizing potential"}]}
